Reference: patent publication US20140242093A1, “METHODS AND COMPOSITIONS FOR MODULATING THE INNATE IMMUNE RESPONSE AND/OR MYOGENESIS IN A MAMMALIAN SUBJECT” (FRED HUTCHINSON CANCER RESEARCH CENTER, priority 2011, published 2014)

Tested on: Human myoblasts
Assay: Expression array of the innate immune response to lentiviral infection versus uninfected cells
Type: cell-based
Experimental: RNA was harvested from the lenti-viral infected cells and uninfected control cells at 24 hours after infection.

With “DUX4-fl: full-length DUX4 protein (SEQ ID NO:110), expressed from lentiviral or pCS2 vectors or in vitro translated” the “induction of viral RNA sensors LGP2 (DHX58), IFIH1 (MDA5), DDX58 (RIG-1)” value was “suppresses the induction of the three primary sensors of viral RNA”, the “number of the 341 genes induced within 50% of the level of induction by lenti-GFP” value was 24 genes and the “share of lentivirus-induced genes whose induction is suppressed” value (317 out of 341) was 93%. The “DEFB103A and DEFB103B transcripts” value (expression array) was “activated”, the “CCL2 expression ratio vs GFP (.fc)” value (gene CCL2 NM_002982.3, vs lenti-GFP, 24 hours after infection) was −2.68 log2 fold change and the “CCL2 expression ratio vs NoLenti (.fc)” value (gene CCL2 NM_002982.3, vs uninfected, 24 hours after infection) was 0.01 log2 fold change. The “CCL5 expression ratio vs GFP (.fc)” value (gene CCL5 NM_002985.2, vs lenti-GFP, 24 hours after infection) was −2.53 log2 fold change, the “CCL5 expression ratio vs NoLenti (.fc)” value (gene CCL5 NM_002985.2, vs uninfected, 24 hours after infection) was 0.22 log2 fold change and the “CXCL1 expression ratio vs GFP (.fc)” value (gene CXCL1 NM_001511.1, vs lenti-GFP, 24 hours after infection) was −3.52 log2 fold change. For the same substance, the “CXCL1 expression ratio vs NoLenti (.fc)” value (gene CXCL1 NM_001511.1, vs uninfected, 24 hours after infection) was −0.04 log2 fold change, the “CXCL2 expression ratio vs GFP (.fc)” value (gene CXCL2 NM_002089.3, vs lenti-GFP, 24 hours after infection) was −1.34 log2 fold change and the “CXCL2 expression ratio vs NoLenti (.fc)” value (gene CXCL2 NM_002089.3, vs uninfected, 24 hours after infection) was −0.04 log2 fold change. For the same substance, the “CXCL5 expression ratio vs GFP (.fc)” value (gene CXCL5 NM_002994.3, vs lenti-GFP, 24 hours after infection) was −2.47 log2 fold change, the “CXCL5 expression ratio vs NoLenti (.fc)” value (gene CXCL5 NM_002994.3, vs uninfected, 24 hours after infection) was −0.37 log2 fold change and the “CXCL6 expression ratio vs GFP (.fc)” value (gene CXCL6 NM_002993.2, vs lenti-GFP, 24 hours after infection) was −1.99 log2 fold change. For the same substance, the “CXCL6 expression ratio vs NoLenti (.fc)” value (gene CXCL6 NM_002993.2, vs uninfected, 24 hours after infection) was −0.10 log2 fold change, the “DDX58 expression ratio vs GFP (.fc)” value (gene DDX58 NM_014314.3, vs lenti-GFP, 24 hours after infection) was −2.47 log2 fold change and the “DDX58 expression ratio vs NoLenti (.fc)” value (gene DDX58 NM_014314.3, vs uninfected, 24 hours after infection) was −0.18 log2 fold change. The “DHX58 (LGP2) expression ratio vs GFP (.fc)” value (gene DHX58 NM_024119.2, vs lenti-GFP, 24 hours after infection) was −2.84 log2 fold change, the “DHX58 (LGP2) expression ratio vs NoLenti (.fc)” value (gene DHX58 NM_024119.2, vs uninfected, 24 hours after infection) was −0.17 log2 fold change and the “IFI6 expression ratio vs GFP (.fc)” value (gene IFI6 NM_022872.2, vs lenti-GFP, 24 hours after infection) was −4.24 log2 fold change. The “IFI6 expression ratio vs NoLenti (.fc)” value (gene IFI6 NM_022872.2, vs uninfected, 24 hours after infection) was 0.82 log2 fold change, the “IFI16 expression ratio vs GFP (.fc)” value (gene IFI16 NM_005531.1, vs lenti-GFP, 24 hours after infection) was −2.01 log2 fold change and the “IFI16 expression ratio vs NoLenti (.fc)” value (gene IFI16 NM_005531.1, vs uninfected, 24 hours after infection) was −0.14 log2 fold change. The “IFI27 expression ratio vs GFP (.fc)” value (gene IFI27 NM_005532.3, vs lenti-GFP, 24 hours after infection) was −6.53 log2 fold change, the “IFI27 expression ratio vs NoLenti (.fc)” value (gene IFI27 NM_005532.3, vs uninfected, 24 hours after infection) was 0.92 log2 fold change and the “IFI35 expression ratio vs GFP (.fc)” value (gene IFI35 NM_005533.2, vs lenti-GFP, 24 hours after infection) was −3.85 log2 fold change. For the same substance, the “IFI35 expression ratio vs NoLenti (.fc)” value (gene IFI35 NM_005533.2, vs uninfected, 24 hours after infection) was −0.32 log2 fold change, the “IFI44L expression ratio vs GFP (.fc)” value (gene IFI44L NM_006820.1, vs lenti-GFP, 24 hours after infection) was −5.12 log2 fold change and the “IFI44L expression ratio vs NoLenti (.fc)” value (gene IFI44L NM_006820.1, vs uninfected, 24 hours after infection) was 0.74 log2 fold change. The “IFI44 expression ratio vs GFP (.fc)” value (gene IFI44 NM_006417.3, vs lenti-GFP, 24 hours after infection) was −2.42 log2 fold change, the “IFI44 expression ratio vs NoLenti (.fc)” value (gene IFI44 NM_006417.3, vs uninfected, 24 hours after infection) was 0.90 log2 fold change and the “IFIH1 (MDA5) expression ratio vs GFP (.fc)” value (gene IFIH1 NM_022168.2, vs lenti-GFP, 24 hours after infection) was −3.70 log2 fold change. The “IFIH1 (MDA5) expression ratio vs NoLenti (.fc)” value (gene IFIH1 NM_022168.2, vs uninfected, 24 hours after infection) was 0.25 log2 fold change, the “IFIT1 expression ratio vs GFP (.fc)” value (gene IFIT1 NM_001548.3, vs lenti-GFP, 24 hours after infection) was −4.38 log2 fold change and the “IFIT1 expression ratio vs NoLenti (.fc)” value (gene IFIT1 NM_001548.3, vs uninfected, 24 hours after infection) was 0.43 log2 fold change. For the same substance, the “IFIT3 expression ratio vs GFP (.fc)” value (gene IFIT3 NM_001549.2, vs lenti-GFP, 24 hours after infection) was −3.86 log2 fold change, the “IFIT3 expression ratio vs NoLenti (.fc)” value (gene IFIT3 NM_001549.2, vs uninfected, 24 hours after infection) was 0.04 log2 fold change and the “IFIT5 expression ratio vs GFP (.fc)” value (gene IFIT5 NM_012420.1, vs lenti-GFP, 24 hours after infection) was −1.65 log2 fold change. For the same substance, the “IFIT5 expression ratio vs NoLenti (.fc)” value (gene IFIT5 NM_012420.1, vs uninfected, 24 hours after infection) was −0.36 log2 fold change, the “IFITM1 expression ratio vs GFP (.fc)” value (gene IFITM1 NM_003641.3, vs lenti-GFP, 24 hours after infection) was −6.12 log2 fold change and the “IFITM1 expression ratio vs NoLenti (.fc)” value (gene IFITM1 NM_003641.3, vs uninfected, 24 hours after infection) was 0.73 log2 fold change. For the same substance, the “IFITM2 expression ratio vs GFP (.fc)” value (gene IFITM2 NM_006435.2, vs lenti-GFP, 24 hours after infection) was −1.71 log2 fold change, the “IFITM2 expression ratio vs NoLenti (.fc)” value (gene IFITM2 NM_006435.2, vs uninfected, 24 hours after infection) was −0.46 log2 fold change and the “IFITM3 expression ratio vs GFP (.fc)” value (gene IFITM3 NM_021034.2, vs lenti-GFP, 24 hours after infection) was −1.95 log2 fold change.
